Measured values taken from US20150125889A1, “IN VITRO DETECTION OF MICROORGANISMS WITH AZOREDUCTASE ACTIVITY” (BIOMÉRIEUX, priority 2012, published 2015).

Key:
Assay in all cases: Reduction of azo substrates over 24 hours at 35° C., microtitration plate (Example 1)
Assay type in all cases: cell-based
[1] = tested on: Acinetobacter baumanii; design: key to RED (substrate reduced or not): RED indicates whether the substrate is reduced (Y) or not (N); RED indicates whether the substrate is reduced (Y) or not (N); key to Decol (substrate decolourized, decrease in absorbance) / Fluo (fluorescence multiplied by 2 relative to substrate-free control) / Co (growth, absorbance at 660 nm): The symbol “+” means good growth/decolourization/significant increase in fluorescence; The symbol “+/−” means difficult growth; The symbol “−” means that there is no growth/decolourization/significant increase in fluorescence; conditions: A. baumannii, substrate 35 mg/l
Method: (§1) Reduction of the “azo” function of the substrates listed in Table I by the species listed in Table II, each species being represented by a strain, is tested in a microtitration plate.
(§2) The reaction medium consists of: • Trypcase soya broth • Substrate 35 mg/l • 0.5 MacFarland inoculum
(§3) The reduction of the substrate and the growth of the microorganisms are monitored using an Infinite® M200 Tecan microplate reader at 35° C. over 24 hours.
(§4) The growth is monitored by the absorbance at 660 nm and the reduction of the substrates by absorbance and fluorescence at the specific wavelengths indicated in Table III.
(§5) The substrate is considered as reduced by the microorganisms when the substrate is decolourized (monitored by the decrease in absorbance) (Decol) and/or when the fluorescence of the substrate is multiplied by 2 relative to the base fluorescence of a substrate-free control (Fluo). The growth is indicated by Co. The symbol “+” means good growth/decolourization/significant increase in fluorescence. The symbol “+/−” means difficult growth. The symbol “−” means that there is no growth/decolourization/significant increase in fluorescence. RED indicates whether the substrate is reduced (Y) or not (N).

[2] = tested on: Enterococcus faecalis; design: key to RED (substrate reduced or not): RED indicates whether the substrate is reduced (Y) or not (N); RED indicates whether the substrate is reduced (Y) or not (N); key to Decol (substrate decolourized, decrease in absorbance) / Fluo (fluorescence multiplied by 2 relative to substrate-free control) / Co (growth, absorbance at 660 nm): The symbol “+” means good growth/decolourization/significant increase in fluorescence; The symbol “+/−” means difficult growth; The symbol “−” means that there is no growth/decolourization/significant increase in fluorescence; conditions: E. faecalis, substrate 35 mg/l
Method: as §1, §2, §3, §4, §5

[3] = tested on: Kocuria rosea; design: key to RED (substrate reduced or not): RED indicates whether the substrate is reduced (Y) or not (N); RED indicates whether the substrate is reduced (Y) or not (N); key to Co (growth, absorbance at 660 nm) / Decol (substrate decolourized, decrease in absorbance) / Fluo (fluorescence multiplied by 2 relative to substrate-free control): The symbol “+” means good growth/decolourization/significant increase in fluorescence; The symbol “+/−” means difficult growth; The symbol “−” means that there is no growth/decolourization/significant increase in fluorescence; conditions: K. rosea, substrate 35 mg/l
Method: as §1, §2, §3, §4, §5

[4] = tested on: Staphylococcus epidermidis; design: key to RED (substrate reduced or not): RED indicates whether the substrate is reduced (Y) or not (N); RED indicates whether the substrate is reduced (Y) or not (N); key to Co (growth, absorbance at 660 nm) / Decol (substrate decolourized, decrease in absorbance) / Fluo (fluorescence multiplied by 2 relative to substrate-free control): The symbol “+” means good growth/decolourization/significant increase in fluorescence; The symbol “+/−” means difficult growth; The symbol “−” means that there is no growth/decolourization/significant increase in fluorescence; conditions: S. epidermidis, substrate 35 mg/l
Method: as §1, §2, §3, §4, §5

[5] = tested on: Pseudomonas aeruginosa; design: key to RED (substrate reduced or not): RED indicates whether the substrate is reduced (Y) or not (N); RED indicates whether the substrate is reduced (Y) or not (N); key to Co (growth, absorbance at 660 nm) / Decol (substrate decolourized, decrease in absorbance) / Fluo (fluorescence multiplied by 2 relative to substrate-free control): The symbol “+” means good growth/decolourization/significant increase in fluorescence; The symbol “+/−” means difficult growth; The symbol “−” means that there is no growth/decolourization/significant increase in fluorescence; conditions: P. aeruginosa, substrate 35 mg/l
Method: as §1, §2, §3, §4, §5

[6] = tested on: Staphylococcus aureus; design: key to RED (substrate reduced or not): RED indicates whether the substrate is reduced (Y) or not (N); RED indicates whether the substrate is reduced (Y) or not (N); key to Co (growth, absorbance at 660 nm) / Decol (substrate decolourized, decrease in absorbance) / Fluo (fluorescence multiplied by 2 relative to substrate-free control): The symbol “+” means good growth/decolourization/significant increase in fluorescence; The symbol “+/−” means difficult growth; The symbol “−” means that there is no growth/decolourization/significant increase in fluorescence; conditions: S. aureus, substrate 35 mg/l
Method: as §1, §2, §3, §4, §5

[7] = tested on: Geotrichum candidum; design: key to RED (substrate reduced or not): RED indicates whether the substrate is reduced (Y) or not (N); RED indicates whether the substrate is reduced (Y) or not (N); key to Co (growth, absorbance at 660 nm) / Decol (substrate decolourized, decrease in absorbance) / Fluo (fluorescence multiplied by 2 relative to substrate-free control): The symbol “+” means good growth/decolourization/significant increase in fluorescence; The symbol “+/−” means difficult growth; The symbol “−” means that there is no growth/decolourization/significant increase in fluorescence; conditions: G. candidum, substrate 35 mg/l
Method: as §1, §2, §3, §4, §5

[8] = tested on: Cronobacter muytjensii; design: key to RED (substrate reduced or not): RED indicates whether the substrate is reduced (Y) or not (N); RED indicates whether the substrate is reduced (Y) or not (N); key to Co (growth, absorbance at 660 nm) / Decol (substrate decolourized, decrease in absorbance) / Fluo (fluorescence multiplied by 2 relative to substrate-free control): The symbol “+” means good growth/decolourization/significant increase in fluorescence; The symbol “+/−” means difficult growth; The symbol “−” means that there is no growth/decolourization/significant increase in fluorescence; conditions: E. muytjensii, substrate 35 mg/l
Method: as §1, §2, §3, §4, §5

[9] = tested on: Escherichia coli; design: key to RED (substrate reduced or not): RED indicates whether the substrate is reduced (Y) or not (N); RED indicates whether the substrate is reduced (Y) or not (N); key to Co (growth, absorbance at 660 nm) / Decol (substrate decolourized, decrease in absorbance) / Fluo (fluorescence multiplied by 2 relative to substrate-free control): The symbol “+” means good growth/decolourization/significant increase in fluorescence; The symbol “+/−” means difficult growth; The symbol “−” means that there is no growth/decolourization/significant increase in fluorescence; conditions: E. coli, substrate 35 mg/l
Method: as §1, §2, §3, §4, §5

[10] = tested on: Candida albicans; design: key to RED (substrate reduced or not): RED indicates whether the substrate is reduced (Y) or not (N); RED indicates whether the substrate is reduced (Y) or not (N); key to Co (growth, absorbance at 660 nm) / Decol (substrate decolourized, decrease in absorbance) / Fluo (fluorescence multiplied by 2 relative to substrate-free control): The symbol “+” means good growth/decolourization/significant increase in fluorescence; The symbol “+/−” means difficult growth; The symbol “−” means that there is no growth/decolourization/significant increase in fluorescence; conditions: substrate 35 mg/l
Method: as §1, §2, §3, §4, §5

| SMILES | Co (growth, absorbance at 660 nm) [1] | Decol (substrate decolourized, decrease in absorbance) [1] | Fluo (fluorescence multiplied by 2 relative to substrate-free control) [1] | RED (substrate reduced or not) [1] | Co (growth, absorbance at 660 nm) [2] | Decol (substrate decolourized, decrease in absorbance) [2] | Fluo (fluorescence multiplied by 2 relative to substrate-free control) [2] | RED (substrate reduced or not) [2] | Co (growth, absorbance at 660 nm) [3] | Decol (substrate decolourized, decrease in absorbance) [3] | Fluo (fluorescence multiplied by 2 relative to substrate-free control) [3] | Co (growth, absorbance at 660 nm) [4] | Decol (substrate decolourized, decrease in absorbance) [4] | Fluo (fluorescence multiplied by 2 relative to substrate-free control) [4] | RED (substrate reduced or not) [4] | Co (growth, absorbance at 660 nm) [5] | Decol (substrate decolourized, decrease in absorbance) [5] | Fluo (fluorescence multiplied by 2 relative to substrate-free control) [5] | RED (substrate reduced or not) [5] | Co (growth, absorbance at 660 nm) [6] | other results |
| --- | --- | --- | --- | --- | --- | --- | --- | --- | --- | --- | --- | --- | --- | --- | --- | --- | --- | --- | --- | --- | --- |
| O=C(O)c1ccccc1/N=N/c1cc(Br)c(O)c(Br)c1 [2-(4-hydroxy-3,5-dibromophenylazo)benzoic acid] | + | − | + | Y | + | + | + | Y | − | − | − | + | +/− | + | Y | + | − | − | N | + | Decol (substrate decolourized, decrease in absorbance) [6]: +; Fluo (fluorescence multiplied by 2 relative to substrate-free control) [6]: +; RED (substrate reduced or not) [6]: Y; Co (growth, absorbance at 660 nm) [7]: +; Decol (substrate decolourized, decrease in absorbance) [7]: −; Fluo (fluorescence multiplied by 2 relative to substrate-free control) [7]: +; RED (substrate reduced or not) [7]: Y; Co (growth, absorbance at 660 nm) [8]: +; Decol (substrate decolourized, decrease in absorbance) [8]: +; Fluo (fluorescence multiplied by 2 relative to substrate-free control) [8]: +; RED (substrate reduced or not) [8]: Y; Co (growth, absorbance at 660 nm) [9]: +; Decol (substrate decolourized, decrease in absorbance) [9]: −; Fluo (fluorescence multiplied by 2 relative to substrate-free control) [9]: +; RED (substrate reduced or not) [9]: Y; Co (growth, absorbance at 660 nm) [10]: +; Decol (substrate decolourized, decrease in absorbance) [10]: −; Fluo (fluorescence multiplied by 2 relative to substrate-free control) [10]: −; RED (substrate reduced or not) [10]: N |
| Nc1ccc(/N=N/c2ccc(S(=O)(=O)O)cc2)cc1S(=O)(=O)O [4-aminoazobenzene-3,4′-disulfonic acid, 4-Aminoazobenzene-3,4′-disulfonic acid] | + | − | − | N | + | + | + | Y | − | − | − | + | − | − | N | + | − | − | N | + | Decol (substrate decolourized, decrease in absorbance) [6]: −; Fluo (fluorescence multiplied by 2 relative to substrate-free control) [6]: −; RED (substrate reduced or not) [6]: N; Co (growth, absorbance at 660 nm) [7]: +; Decol (substrate decolourized, decrease in absorbance) [7]: −; Fluo (fluorescence multiplied by 2 relative to substrate-free control) [7]: −; RED (substrate reduced or not) [7]: N; Co (growth, absorbance at 660 nm) [8]: +; Decol (substrate decolourized, decrease in absorbance) [8]: −; Fluo (fluorescence multiplied by 2 relative to substrate-free control) [8]: −; RED (substrate reduced or not) [8]: N; Co (growth, absorbance at 660 nm) [9]: +; Decol (substrate decolourized, decrease in absorbance) [9]: −; Fluo (fluorescence multiplied by 2 relative to substrate-free control) [9]: −; RED (substrate reduced or not) [9]: N; Co (growth, absorbance at 660 nm) [10]: +; Decol (substrate decolourized, decrease in absorbance) [10]: +; Fluo (fluorescence multiplied by 2 relative to substrate-free control) [10]: +; RED (substrate reduced or not) [10]: Y |
